Source: paper PMC8178976, “A biocompatible stapling reaction for in situ generation of constrained peptides” (Chemical Science, 2020)
Like-named read-outs stand apart in the source and are kept apart here. Where a SMILES comes first, the peptide text is derived from it. [ ]: non-standard residue; d: D form. Dab = NCC[C@H](N)C(=O)O

Key:
[1] = molecular target: Zika virus NS2B-NS3 protease (ZiPro) (Zika virus, UniProt A0A024B7W1); assay: Zika virus NS2B-NS3 protease (ZiPro) inhibition assay; type: biochemical; settings: for IC50: purified compounds, dose-response curve assuming Hill slope of 1, 3-parameter fit
Zika virus NS2B-NS3 protease (ZiPro), sequence (A0A024B7W1 1503-1679): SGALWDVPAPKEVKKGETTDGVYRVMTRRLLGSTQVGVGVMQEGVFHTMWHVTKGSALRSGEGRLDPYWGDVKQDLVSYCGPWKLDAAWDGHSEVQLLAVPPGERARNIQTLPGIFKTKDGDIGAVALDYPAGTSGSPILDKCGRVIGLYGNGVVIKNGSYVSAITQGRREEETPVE
Zika virus NS2B-NS3 protease (ZiPro), sequence (A0A024B7W1 1417-1468): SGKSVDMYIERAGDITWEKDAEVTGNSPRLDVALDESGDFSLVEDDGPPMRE
Method: Expression and purification of Zika virus protease NS2B-NS3 (ZiPro)
The unlinked Zika virus protease NS2B-NS3 construct referred to as bZiPro was obtained from Addgene (plasmid #86846) and expressed and purified exactly as described previously.1 Preparation of samples for ZiPro assay
Linear peptide samples 1a – 10a were prepared by adding 2 µl of 1a – 10a (10 mM in water) to 198 µl of buffer (10 mM Tris pH 7.5, 1 mM TCEP). The presence of TCEP is important to reduce cyclic disulfides. Stapled peptides 1b – 10b were prepared in situ by adding 2.5 µl of DCP (10 mM in DMSO) and 2 µl of 1a – 10a (10 mM in water) to 195.5 µl of buffer (10 mM Tris pH 7.5, 1 mM TCEP). Samples were incubated overnight, and the presence of stapled peptides 1b – 10b was confirmed by LC-MS (method B).
ZiP ro inhibition assay (Table 2)
The assay was conducted in 96-well plates (black U-bottom, Greiner Bio-One) in a total volume of 100 µl using 10 mM Tris pH 8.5, 1 mM CHAPS, 20% glycerol . All measurements were performed in triplicate. Purified peptides 1a – 10a and crude mixtures containing peptides 1b – 10b (prepared as described above) were incubated with ZiPro (0.3 nM) at final concentrations of 1 and 10 µM. The enzymatic reaction was initiated by addition of the substrate Bz-Nle-Ly s-Lys-Arg-A MC (Biosynt a n) at a final concentration of 5 µM.
Fluorescence was monitored by a fluorophotometer (Spectramax M2e plate reader, Molecular Devices) for 5 min at 460 nm using 360 nm excitation. Initial velocities were derived from the linear range, and 100% enzyme activity was defined as the initial velocity of blank wells containing no peptide. Percent inhibition was calculated as a fraction of 100% enzyme activity.
In situ stapling of 1b during ZiPro inhibition assay (Figure 3a)
All measurements were performed in triplicate. 2 µl of DCP (20 mM in DMSO) and 2 µl of 1a (10 mM in water) were mixed in 196 µl buffer (10 mM Tris pH 7.5, 4 mM TCEP). A blank was prepared by adding 2 µl of DCP (20 mM in DMSO) to 198 µl buffer (10 mM Tris pH 7.5, 4 mM TCEP). After 5 minutes, 10 µl of the reaction and blank mixtures were added to ZiPro (0.3 nM) in assay buffer (10 mM Tris pH 8.5, 1 mM CHAPS, 20% glycerol) to a total volume of 100 µl and incubated at room temperature. After incubation over 5, 20, 45, 90 and 180 minutes, substrate (5 µM) was added, and the enzyme activity was monitored as described above. Percent inhibition was calculated as a fraction of 100% enzyme activity considering each individual set of blanks.
Determination of IC50 values of 1a and 1b (Figure 3b-c)
All measurements were performed in triplicate using the ZiPro assay described above . Stock solutions (1 mM and 2 mM) of 1a were prepared in buffer (10 mM Tris pH 7.5, 4 m M T C EP) and used immediately. ZiPro inhibition of 1a was measured at 100, 50, 20, 5, 2. 5, 1, and 0. 5
µM. Stock solutions of purified 1b were made in water. ZiPro inhibition of 1b was measured at 50, 20, 5, 2.5, 1, 0.5, and 0.1 µM. The IC50 values were calculated using GraphPad Prism 8 using a 3 -parameter fit . […]

[2] = the molecule shown is the open-chain precursor, crosslinker bond, 0.6 mM

Compound: N=C(N)NCCC[C@H](NC(=O)[C@H](CCCCN)NC(=O)[C@@H](N)CCNC(=O)[C@@H](N)CS)C(=O)N[C@@H](CCCCN)C(=O)N[C@@H](CCNC(=O)[C@@H](N)CS)C(N)=O [1a] (H-[Dab](Cys)KRK[Dab](Cys)-NH2)
- IC50 ([1]; triplicate): 23 µM
- ZiPro inhibition (%) 1 μM ([1]; purified linear peptides at 1 μM, ZiPro 0.3 nM, substrate 5 μM, 10 mM Tris pH 8.5, 1 mM CHAPS, 20% glycerol, triplicate, n.i. = no inhibition): n.i.
- inhibition at 10 µM ([1]; purified linear peptides at 10 μM, ZiPro 0.3 nM, substrate Bz-Nle-Lys-Lys-Arg-AMC 5 μM, 10 mM Tris pH 8.5, 1 mM CHAPS, 20% glycerol, fluorescence, triplicate, n.i. = no inhibition): 23 ± 4%

Compound: N=C(N)NCCC[C@@H]1NC(=O)[C@H](CCCCN)NC(=O)[C@@H](N)CCNC(=O)[C@@H]2CSC(=N2)c2cccc(n2)C2=N[C@@H](CS2)C(=O)NCC[C@@H](C(N)=O)NC(=O)[C@H](CCCCN)NC1=O [1b]
- inhibition at 1 µM ([1]; in situ stapled peptides (crude mixtures, no purification) after 24 h incubation with DCP, 1 μM, ZiPro 0.3 nM, substrate 5 μM, pH 8.5, triplicate, n.i. = no inhibition): 27 ± 4%
- inhibition at 10 µM ([1]; in situ stapled peptides (crude mixtures, no purification) after 24 h incubation with DCP, 10 μM, ZiPro 0.3 nM, substrate 5 μM, pH 8.5, triplicate, n.i. = no inhibition): 60 ± 7%
- IC50 ([1]; triplicate): 0.8 µM

Compound: N#Cc1cccc(C#N)n1 [DCP, 2,6-dicyanopyridine, reference compound]
- effect of DCP on ZiPro activity ([1]; concentrations of DCP used in the assay): no significant effect

Compound: H-Cys-Lys-Arg-Lys-Dab(Cys)-NH2?
- ring closure, conversion ([2]; 25-membered ring, 2,6-dicyanopyridine (2 eq)/TCEP, 10 mM Tris pH 7.5 (aq, MeOH from DCP stock)): 76%

Compound: H-Cys-Lys-Arg-Lys-Dap(Cys)-NH2?
- ring closure, conversion ([2]; 24-membered ring, 2,6-dicyanopyridine (2 eq)/TCEP, 10 mM Tris pH 7.5 (aq, MeOH from DCP stock)): 83%

Compound: H-Cys-Lys-Arg-Lys-Lys(Cys)-NH2?
- ring closure, conversion ([2]; 27-membered ring, 2,6-dicyanopyridine (2 eq)/TCEP, 10 mM Tris pH 7.5 (aq, MeOH from DCP stock)): 83%

Compound: H-Cys-Lys-Arg-Lys-Orn(Cys)-NH2?
- ring closure, conversion ([2]; 26-membered ring, 2,6-dicyanopyridine (2 eq)/TCEP, 10 mM Tris pH 7.5 (aq, MeOH from DCP stock)): 79%

Compound: H-Dys-Lys-Arg-Lys-Dys-NH2
- ring closure, conversion ([2]; 30-membered ring, 2,6-dicyanopyridine (2 eq)/TCEP (6 eq), 10 mM Tris pH 7.5): 93%
- ring closure, conversion ([2]; 30-membered ring, 2,6-dicyanopyridine (2 eq)/TCEP, 10 mM Tris pH 7.5 (aq, MeOH from DCP stock)): 89%
- ring closure, conversion ([2]; 30-membered ring, 2,6-dicyanopyridine (8 eq)/TCEP, 10 mM Tris pH 7.5): 60%
